The subject of assay [1] is proteolysis abilities of Staphylococcus aureus. Nature of the assay: Milk agar plate-based proteolysis assay. It is filed as cell-based. The following applies: for proteolytic activity of S. aureus: total amount of 250 nmol applied on Whatman Cards, 1% skim milk LB agar, 37° C. over night. As to the method: FIG. 6: Milk agar plate-based assay illustrating that beta-lactones have an effect on the proteolysis abilities of Staphylococcus aureus. 2.5 μL of S. aureus LB dilution (OD600=0.13 corresponding to approx. 1×10^8 cfu/ml) and 2.5 μL DMSO/beta-lactone in DMSO were applied on Whatman Cards placed on 1% skim milk LB agar plates and incubated at 37° C. over night. A) Direct comparison of beta-lactones as shown in FIG. 2 at a total amount of 250 nmol applied on Whatman Cards. B) Dose down with beta-lactones D3, E2 and G2 at applied concentrations of 100 mM, 50 mM, 25 mM, 12.5 mM, 6.25 mM and 0 mM (corresponding to total amounts of 250 nmol, 125 nmol, 62.5 nmol, 31.3 nmol, 15.6 nmol and 0 nmol, respectively). C) Proteolysis zone size plotted against the total amount of the respective beta-lactone.
2.5 μL of S. aureus LB dilution (OD600=0.13 corresponding to approx. 1×10^8 cfu/ml) and 2.5 μL DMSO/beta-lactone in DMSO were applied on Whatman Cards placed on 1% skim milk LB agar plates and incubated at 37° C. over night. FIG. 6A directly compares the β-lactones at a total amount of 250 nmol applied on Whatman Cards. […] For D3 and E2 almost no proteolysis is observed down to a total amount of 125 nmol of the respective beta-lactone. FIG. 6C illustrates that the proteolysis zone size plotted against the total amount of beta-lactone visualizes the strong effects particularly of D3 and E2.

Assay [2] deals with haemolysis abilities of Staphylococcus aureus. Nature of the assay: Blood agar plate-based haemolysis assay. It is filed as cell-based. The following applies: total amount of 250 nmol applied on Whatman Cards, 5% sheep blood agar, 37° C. over night. As to the method: FIG. 3: Blood agar plate-based assay illustrating that beta-lactones have an effect on the haemolysis abilities of Staphylococcus aureus. 2.5 μL of S. aureus LB dilution (OD600=0.13 corresponding to approx. 1×10^8 cfu/ml) and 2.5 μL DMSO/lactone in DMSO were applied on Whatman Cards placed on 5% sheep blood agar plates (Heipha Diagnostika, Eppelheim, Germany) and incubated at 37° C. over night. A) Direct comparison of beta-lactones as shown in FIG. 2 at a total amount of 250 nmol applied on Whatman Cards. B) Dose down with beta-lactone compounds D3, E2 and G2 at applied concentrations of 100 mM, 50 mM, 25 mM, 12.5 mM, 6.25 mM and 0 mM (corresponding to total amounts of 250 nmol, 125 nmol, 62.5 nmol, 31.3 nmol, 15.6 nmol and 0 nmol, respectively).
2.5 μl, of S. aureus LB dilution (OD600 0.13 corresponding to approx. 1×10^8 cfu/ml) and 2.5 μL DMSO/beta-lactone in DMSO were applied on Whatman Cards placed on 5% sheep blood agar plates (Heipha Diagnostika, Eppelheim, Germany) and incubated at 37° C. over night. FIG. 3A directly compares the β-lactones at a total amount of 250 nmol applied on Whatman Cards. […] For D3 almost no haemolysis is observed down to a total amount of 125 nmol lactone. FIG. 5 illustrates the haemolytic activity of beta-lactone compounds D3, E2 and G2 plotted against the total amount of the respective beta-lactone, whereby a haemolysis zone size of 1.5 mm was set as 100% haemolytic activity. The data shown in FIG. 5 has been corroborated by further experimental testing.
Haemolysis was tested on blood agar plates (5% sheep blood; Heipha Diagnostika, Eppelheim, Germany). Sterile circles of Whatman cards (No. Y) with 5 mm diameter were placed on agar plates and inoculated with 2.5 μL of the corresponding beta-lactone/DMSO and 2.5 μL stationary phase culture of S. aureus diluted to […]. The plates were incubated over night at 37° C. and the diameters of the zones around the bacterial colonies were precisely measured using a vernier caliper.

For assay [3], the system named is lipase/acylhydrolase (LipAc). As to the kind of experiment: ABPP probe dose down in proteome, lipase/acylhydrolase labeling. The following applies: L. welshimeri proteome, concentration range 10 μM to 5 nM. Type of assay: binding. As to the method: To estimate the strength of probe interactions with proteins in the proteome, we compared the reactivity profiles of selected beta-lactones across a broad concentration range from 10 μM to 5 nM.
(§1) Proteome samples were adjusted to a final concentration of 1 mg protein/mL by dilution in PBS prior to probe labeling. Experiments for visualization by 1D SDS-PAGE were carried out in 43 μL total volume and those for affinity enrichment in 1892 μL total volume, such that once CC reagents were added, the total reaction volume was 50 μL and 2 mL, respectively. Reactions were initiated by addition of the probe and allowed to incubate for 60 min at room temperature. For heat controls the proteome was denatured with 1 μL of 43% SDS at 95° C. for 6 min and cooled to room temperature before the probe was applied. Following incubation, reporter tagged-azide reagents (13 μM rhodamine-azide for analytical or 20 μM rhodamine-biotin-azide for preparative scale) were added followed by 1 mM TCEP and 100 μM ligand. Samples were gently vortexed and the cycloaddition initiated by the addition of 1 mM CuSO4. The reactions were incubated at room temperature for 1 h (Speers, J. Amer. Chem. Soc. 125 (2003), 4686).

For assay [4], the system named is serine proteases. As to the kind of experiment: Competitive labeling with PMSF. It is filed as binding. The following applies: 100 fold excess, 15 min prior to beta-lactone probes. As to the method: (§2) FIG. 13: Active site competition assays and IC50. A) Competition experiment with KAS II with and without 100 fold excess of cerulenin in presence of the beta-lactone probe G2. B) Competition experiments with several serine proteases with and without 100 fold excess of PMSF in presence of the corresponding beta-lactone probes (LWC: L. welshimeri cytosol, LWM: L. welshimeri membrane, BSC: B. subtilis cytosol). C) IC50 of 5 μM for SFGH. For a list of abbreviations, please refer to Example 6, Table 1. The term PNB is also referred to herein as PNBE.
(§3) In competitive assays, a 100 fold excess of PMSF or cerulenin was added to the proteome 15 min prior to beta-lactone addition.

Assay [5] addresses T1, ClpP (Listeria monocytogenes serovar 1/2a, UniProt Q9RQI6).
T1 construct: endogenous in cells; host or cells: living Listeria monocytogenes EGDe, stationary phase
As to the kind of experiment: In vivo labeling of Listeria proteomes. It is filed as cell-based. The following applies: living L. monocytogenes EGDe, cytosol, 2 h incubation. On the procedure:
For analytical and preparative in vivo studies, Listeria were grown to stationary phase and harvested by centrifugation at 4,000 rpm 1 h after entrance in the stationary phase (1.5 ml for analytical and 15 ml for preparative studies). The cell pellets were washed once with PBS and resuspended in 100 μL and 500 μL PBS for analytical and preparative studies, respectively. The cell suspensions were incubated for 2 h with varying concentrations of probe at room temperature. Probes were applied from DMSO stocks whereby DMSO never exceeded 2% in the final solution. For preparative experiments, 50 μM of the probes was added to the cells resuspended in PBS. After incubation, the cells were washed thoroughly three times with PBS to remove excess probe from the supernatant. Subsequently the cells were lysed in 100 μL (500 μL) PBS by sonication with a Bandelin Sonopuls with 3×20 sec. pulsed at 70% max. power. For analytical experiments 44 μL proteome were used to append a reporter tag via CC, such that once CC reagents were added, the total reaction volume was 50 μL. In preparative purposes the total volume of 500 μL it was consumed per experiment. Reporter tagged-azide reagents (13 μM rhodamine-azide for analytical or 20 μM rhodamine-biotin-azide for preparative scale) were added followed by 1 mM TCEP and 100 μM ligand. Samples were gently vortexed and the cycloaddition initiated by the addition of 1 mM CuSO4. The reactions were incubated at room temperature for 1 h. For analytical gel electrophoresis, 50 μL 2×SDS loading buffer were added and 50 μL applied on the gel. Fluorescence was recorded in a Fujifilm Las-3000 Fluoreszenz Darkbox with a Fujinon VRF 43LMD Lens, 605DF40 filter and 520 nm EPI excitation wavelength.

The subject of assay [6] is LLO haemolytic activity of L. monocytogenes EGDe. Nature of the assay: LLO haemolytic activity testing of culture supernatants. It is filed as cell-based, Listeria monocytogenes EGDe. On the procedure: Overnight cultures of L. monocytogenes EGDe were harvested by centrifugation and resuspended in an equal volume of fresh BHB medium. In 1.5 mL Eppendorf tubes, 400 μL of BHB medium were inoculated with 4 μL of the resuspended Listeria culture and 4 μL of a corresponding beta-lactone stock in DMSO. The final concentrations were 800 μM, 400 μM, 200 μM, 100 μM and DMSO as control. The amount of DMSO in all tests was 1% of the medium. After mixing, the test tubes were incubated under continuous shaking at 200 rpm at 37° C. for 16 h. Then, cells were centrifuged and the supernatants filtered sterile by passing them through a 0.2 μm pore size filter. Haemolytic activity of LLO in the culture supernatants was quantitatively investigated according to a method described in J. Food Safety 1998, 18: 197-203 (incorporated herein by reference) with some modifications. In Nunclon™ 96-well plates with round shaped wells 100 μL of serial dilutions of the supernatants in PBS were added per well and incubated with 100 μL of 3% SRBC (sheep red blood cells) resuspended in PBS for 15 min at 37° C. under gentle shaking. The 96-well plates were centrifuged at 600 rpm for 5 min and the minimum dilution at which intact blood cells began to form a pellet was recorded. Controls with no lactone were set 100%. Buffer only controls and pure BHB medium yielded no haemolysis.

For assay [7], the system named is bacterial proteomes. Nature of the assay: ABPP labeling of bacterial proteomes, labeling profile. It is filed as binding. The following applies: 50 μM probe.
Excerpt: The library of beta-lactones to be tested comprised compounds with aliphatic or aromatic substitutions varying in length and branching. To evaluate the target selectivity, the beta-lactones were screened against several gram-positive and gram-negative bacterial proteomes including Pseudomonas putida, Listeria welshimeri, Bacillus licheniformis, Bacillus subtilis and Escherichia coli, which are phylogenetically related to pathogenic strains. In addition, mouse liver cytosol was included as an eukaryotic reference proteome. Initial labeling experiments were carried out by adding individual probes at 50 μM concentration to the proteome which is sufficient to achieve full saturation of most targets. […] As an example, labeling of L. welshimeri cytosolic and membrane proteomes as well as B. subtilis cytosolic proteome with a subset of the most complementary probes is shown in FIGS. 9A and 9B. […] Most of the targeted proteins were of low abundance as shown by the direct comparison of the relative intensities observed with Coomassie staining vs. fluorescence scanning (FIG. 11).
as §1

Assay [8] deals with KAS II. Nature of the assay: Competitive labeling with cerulenin. The following applies: 100 fold excess, 15 min prior to beta-lactone probe G2. It is filed as binding. On the procedure:
as §2, §3

This is an account of results in US9521845B2, “Beta-lactones as antibacterial agents” (LUDWIG-MAXIMILIANS-UNIVERSITÄT-MÜNCHEN, priority 2008, dated 2016).

T1 sequence (Q9RQI6 whole entry): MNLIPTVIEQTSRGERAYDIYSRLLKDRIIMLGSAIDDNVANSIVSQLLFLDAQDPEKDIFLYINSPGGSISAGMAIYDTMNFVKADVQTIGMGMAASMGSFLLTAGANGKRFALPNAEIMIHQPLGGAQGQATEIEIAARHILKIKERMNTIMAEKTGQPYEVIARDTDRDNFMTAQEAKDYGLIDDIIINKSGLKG

Consider `C#CCCCC1OC(=O)C1c1ccc(OC)cc1` (stereo not drawn) [E2, trans-3-(4-methoxyphenyl)-4-(4-pentyn-1-yl)oxetan-2-one], for which, in assay [1] (dose down 250-15.6 nmol), the “total amount down to which almost no proteolysis is observed” value is on record as 125 nmol. Further, the “proteolytic activity of S. aureus” value in assay [1] was “strongly reduce”. Further, the “haemolytic activity of S. aureus” value in assay [2] is recorded as “strongly reduce”. As for `C#CCCC[C@@H]1OC(=O)[C@H]1c1ccc2ccccc2c1` (relative stereo) [P1, trans-3-(2-naphthyl)-4-(4-pentyn-1-yl)oxetan-2-one, reference compound], in assay [3], the “probe concentration down to which LipAc is labeled” value was determined as 160 nM.

Consider `O=S(=O)(F)Cc1ccccc1` [PMSF], for which, in assay [4], the “effect of pre-incubation on probe labeling of serine proteases” value is listed as “prevented subsequent probe labeling”. For `C#CCCC[C@@H]1OC(=O)[C@H]1CCCCCCCC(=O)Sc1ccccc1` (relative stereo) [N1, trans-S-phenyl 8-(2-oxo-4-(4-pentyn-1-yl)oxetan-3-yl)octanethioate], in assay [5], the “ClpP labeling (probe potency ranking)” value is listed as “most potent probes”. Further, the half-maximal effective concentration (EC50) in assay [6] (Listeria monocytogenes, Erythrocyte, cultures grown 16 h with lactone, sheep red blood cells, read-out: EC50 of reduction of LLO haemolytic activity) was below 100 µM. With `C#CCCC[C@H]1OC(=O)[C@H]1C(C)(C)C` (relative stereo) [L1, cis-3-dimethylethyl-4-(4-pentyn-1-yl)oxetan-2-one], the “enzyme labeling in proteomes” value in assay [7] was “decreased the number of specific labeling events”.

Regarding `C#CCCCC1OC(=O)C1(C)C` (stereo not drawn) [M1, trans-3,3-dimethyl-4-(4-pentyn-1-yl)oxetan-2-one, reference compound], the “proteolytic activity of S. aureus” value in assay [1] is recorded as “no effect”. Also, the “ClpP labeling (probe potency ranking)” value in assay [5] is “did not label and inhibit ClpP”. For the same compound, the effect on haemolysis result in assay [6] (control probe) is listed as “no effect”. Besides, the “lysis of blood cells by culture supernatant” value in assay [6] (fourfold dilution of supernatant, even at 800 μM) was “complete lysis”. Also, the “haemolytic activity of S. aureus” value in assay [2] is recorded as “no effect”.

Turning to `C/C=C/C/C=C/CCC(=O)[C@H]1O[C@H]1C(N)=O` [cerulenin], in assay [8], the “effect of pre-incubation on probe labeling of KAS II” value was “prevented subsequent probe labeling”. Take `C#CCCCC1OC(=O)C12CCCCC2` (stereo not shown) [O1, 4-(4-pentyn-1-yl)oxetan-2-one-3-spirocyclohexane]: in assay [7], the “enzyme labeling in proteomes” value was “decreased the number of specific labeling events”. Take `C#CCCCC1CC(=O)O1` (stereo not shown) [A1, 4-(4-Pentyn-1-yl)oxetan-2-one]: in assay [7], the “enzyme labeling in proteomes” value is “poor in enzyme labeling”.
